Results reported in US10131652B2, “Pyrimidinyloxy benzene derivatives as herbicides” (E. I. DU PONT DE NEMOURS AND COMPANY, priority 2014, dated 2018).

How the values were obtained:
Format in all cases: in vivo
[1] = test system: rice (Oryza sativa); assay: Test C flooded paddy test plant response; settings: Flood, 250 g ai/ha; scale of 0 to 100 where 0 is no effect and 100 is complete control; 13 to 15 days
Method in brief: (§1)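 Readout is a visual 0–100 score (100 = complete control) versus controls at 13–15 days. Plants at 2-leaf stage, flooded to 3 cm, treated through paddy water.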

[2] = test system: barnyardgrass (Echinochloa crus-galli); assay: Test C flooded paddy test plant response; settings: Flood, 250 g ai/ha; scale of 0 to 100 where 0 is no effect and 100 is complete control; 13 to 15 days
Method in brief: as §1

[3] = test system: small-flower umbrella sedge (Cyperus difformis); assay: Test C flooded paddy test plant response; settings: Flood, 250 g ai/ha; scale of 0 to 100 where 0 is no effect and 100 is complete control; 13 to 15 days
Method in brief: as §1

[4] = test system: ducksalad (Heteranthera limosa); assay: Test C flooded paddy test plant response; settings: Flood, 250 g ai/ha; scale of 0 to 100 where 0 is no effect and 100 is complete control; 13 to 15 days
Method in brief: as §1

[5] = test system: kochia (Kochia scoparia); assay: Test B pre-/postemergence plant response
Method in brief: (§2)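 Scoring used a 0–100 scale (100 = complete control) by visual comparison with untreated plants after approximately 10 days in the greenhouse. Compounds, in surfactant-containing non-phytotoxic solvent, were sprayed onto soil at planting or onto 2–10 cm seedlings.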

[6] = test system: ragweed (common ragweed, Ambrosia elatior); assay: Test B pre-/postemergence plant response
Method in brief: as §2

[7] = test system: wheat (Triticum aestivum); assay: Test B pre-/postemergence plant response
Method in brief: as §2

[8] = test system: Italian ryegrass (Lolium multiflorum); assay: Test B pre-/postemergence plant response
Method in brief: as §2

[9] = test system: barnyardgrass (Echinochloa crus-galli); assay: Test B pre-/postemergence plant response
Method in brief: as §2

[10] = test system: pigweed (Amaranthus retroflexus); assay: Test B pre-/postemergence plant response
Method in brief: as §2

[11] = test system: giant foxtail (Setaria faberii); assay: Test B pre-/postemergence plant response
Method in brief: as §2

[12] = test system: corn (Zea mays); assay: Test B pre-/postemergence plant response
Method in brief: as §2

[13] = test system: blackgrass (Alopecurus myosuroides); assay: Test B postemergence plant response
Method in brief: (§3)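 Pots, loam soil + sand; postemergence treatment at 1–2 leaf stage, 2–10 cm; greenhouse ~10 d; visual injury score 0 (none) to 100 (complete control) relative to untreated controls.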

[14] = test system: galium (catchweed bedstraw, Galium aparine); assay: Test B postemergence plant response
Method in brief: as §3

[15] = test system: wild oat (Avena fatua); assay: Test D postemergence plant response; settings: for Oat, Wild plant response rating: scale 0 to 100 (0 no effect, 100 complete control); for Plant response rating, Oat, Wild: scale 0 to 100, 0 no effect, 100 complete control
Method in brief: (§4)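 Visual 0–100 rating vs controls (0 = no effect, 100 = complete control), scored 13–15 d after postemergence spray. Plants 1- to 4-leaf stage (2–18 cm), potted in peat/vermiculite mix, kept in greenhouse.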

[16] = test system: kochia (Kochia scoparia); assay: Test D postemergence plant response; settings: for Kochia plant response rating: scale 0 to 100 (0 no effect, 100 complete control); for Plant response rating, Kochia: scale 0 to 100, 0 no effect, 100 complete control
Method in brief: as §4

[17] = test system: chickweed (common chickweed, Stellaria media); assay: Test D postemergence plant response; settings: for Chickweed plant response rating: scale 0 to 100 (0 no effect, 100 complete control); for Plant response rating, Chickweed: scale 0 to 100, 0 no effect, 100 complete control
Method in brief: as §4

[18] = 125 g ai/ha, postemergence, 0 to 100 scale, 0 no effect, 100 complete control
[19] = Postemergence, 500 g ai/ha, 0 to 100 scale (0 no effect, 100 complete control)
[20] = Preemergence, 125 g ai/ha, 0 to 100 scale where 0 is no effect and 100 is complete control
[21] = Preemergence, 500 g ai/ha, 0 to 100 scale where 0 is no effect and 100 is complete control
[22] = 31 g ai/ha, Postemergence, 0 to 100 scale, 0 no effect, 100 complete control
[23] = Preemergence, 31 g ai/ha, 0 to 100 scale (0 no effect, 100 complete control)

Question: For `Cc1cc(-c2ccccc2Oc2ncc(Cl)cn2)no1` [Compound 60], which “Rice plant response rating” value [1] is on record?
Answer: 30

Question: What about the “Barnyardgrass plant response rating” value [2] of the same molecule?
Answer: 20

Question: And the “Sedge, Umbrella plant response rating” value [3]?
Answer: 50

Question: What about the “Ducksalad plant response rating” value [4] of the same molecule?
Answer: 80

Question: And the “Plant response rating, Kochia” value [5, 18]?
Answer: 90

Question: What about the “Plant response rating, Kochia” value [5, 19] of the same molecule?
Answer: 100

Question: What about the “Plant response rating, Kochia” value [5, 20] of the same molecule?
Answer: 90

Question: And the “Plant response rating, Kochia” value [5, 21]?
Answer: 100

Question: And the “Plant response rating, Ragweed” value [6, 18]?
Answer: 60

Question: And the “Plant response rating, Ragweed” value [6, 19]?
Answer: 90

Question: What about the “Plant response rating, Ragweed” value [6, 20] of the same molecule?
Answer: 20

Question: And the “Plant response rating, Ragweed” value [6, 21]?
Answer: 50

Question: And the “Plant response rating, Wheat” value [7, 18]?
Answer: 30

Question: And the “Plant response rating, Wheat” value [7, 19]?
Answer: 90

Question: What about the “Plant response rating, Ryegrass, Italian” value [8, 18] of the same molecule?
Answer: 0

Question: What about the “Plant response rating, Ryegrass, Italian” value [8, 19] of the same molecule?
Answer: 80

Question: What about the “Plant response rating, Ryegrass, Italian” value [8, 20] of the same molecule?
Answer: 0

Question: And the “Plant response rating, Ryegrass, Italian” value [8, 21]?
Answer: 30

Question: And the “Plant response rating, Barnyardgrass” value [9, 18]?
Answer: 50

Question: And the “Plant response rating, Barnyardgrass” value [9, 19]?
Answer: 100

Question: And the “Plant response rating, Barnyardgrass” value [9, 20]?
Answer: 80

Question: What about the “Plant response rating, Barnyardgrass” value [9, 21] of the same molecule?
Answer: 100

Question: And the “Plant response rating, Pigweed” value [10, 18]?
Answer: 100

Question: What about the “Plant response rating, Pigweed” value [10, 19] of the same molecule?
Answer: 100

Question: What about the “Plant response rating, Pigweed” value [10, 20] of the same molecule?
Answer: 100

Question: And the “Plant response rating, Pigweed” value [10, 21]?
Answer: 100

Question: And the “Plant response rating, Foxtail, Giant” value [11, 18]?
Answer: 50

Question: And the “Plant response rating, Foxtail, Giant” value [11, 19]?
Answer: 100

Question: And the “Plant response rating, Foxtail, Giant” value [11, 20]?
Answer: 80

Question: And the “Plant response rating, Foxtail, Giant” value [11, 21]?
Answer: 100

Question: What about the “Plant response rating, Corn” value [12, 18] of the same molecule?
Answer: 30

Question: And the “Plant response rating, Corn” value [12, 19]?
Answer: 90

Question: And the “Plant response rating, Blackgrass” value [13, 18]?
Answer: 50

Question: What about the “Plant response rating, Blackgrass” value [13, 19] of the same molecule?
Answer: 100

Question: And the “Plant response rating, Galium” value [14, 18]?
Answer: 100

Question: And the “Plant response rating, Galium” value [14, 19]?
Answer: 100

Question: What about the “Oat, Wild plant response rating” value ([15]; 16 g ai/ha) of the same molecule?
Answer: 5

Question: And the “Oat, Wild plant response rating” value ([15]; 31 g ai/ha)?
Answer: 0

Question: What about the “Plant response rating, Oat, Wild” value ([15]; 62 g ai/ha) of the same molecule?
Answer: 0

Question: What about the “Plant response rating, Oat, Wild” value ([15]; 125 g ai/ha) of the same molecule?
Answer: 5

Question: What about the “Kochia plant response rating” value ([16]; 16 g ai/ha) of the same molecule?
Answer: 50

Question: And the “Kochia plant response rating” value ([16]; 31 g ai/ha)?
Answer: 50

Question: And the “Plant response rating, Kochia” value ([16]; 62 g ai/ha)?
Answer: 55

Question: What about the “Plant response rating, Kochia” value ([16]; 125 g ai/ha) of the same molecule?
Answer: 90

Question: And the “Chickweed plant response rating” value ([17]; 16 g ai/ha)?
Answer: 45

Question: And the “Chickweed plant response rating” value ([17]; 31 g ai/ha)?
Answer: 50

Question: What about the “Plant response rating, Chickweed” value ([17]; 62 g ai/ha) of the same molecule?
Answer: 60

Question: What about the “Plant response rating, Chickweed” value ([17]; 125 g ai/ha) of the same molecule?
Answer: 75

Question: Which “Rice plant response rating” value [1] does the source give for `Fc1ccc(Oc2ncc(Cl)cn2)c(-c2cc(C(F)F)on2)c1Cl` [Compound 96] here?
Answer: 30

Question: What about the “Barnyardgrass plant response rating” value [2] of the same molecule?
Answer: 15

Question: What about the “Sedge, Umbrella plant response rating” value [3] of the same molecule?
Answer: 100

Question: What about the “Ducksalad plant response rating” value [4] of the same molecule?
Answer: 90

Question: What about the “Plant response rating, Kochia” value [5, 22] of the same molecule?
Answer: 70

Question: And the “Plant response rating, Kochia” value [5, 18]?
Answer: 100

Question: And the “Kochia plant response rating” value [5, 23]?
Answer: 50

Question: And the “Plant response rating, Kochia” value [5, 20]?
Answer: 70

Question: What about the “Plant response rating, Ragweed” value [6, 22] of the same molecule?
Answer: 50

Question: And the “Plant response rating, Ragweed” value [6, 18]?
Answer: 60

Question: And the “Ragweed plant response rating” value [6, 23]?
Answer: 0

Question: And the “Plant response rating, Ragweed” value [6, 20]?
Answer: 0

Question: And the “Plant response rating, Wheat” value [7, 22]?
Answer: 0

Question: And the “Plant response rating, Wheat” value [7, 18]?
Answer: 0

Question: What about the “Plant response rating, Ryegrass, Italian” value [8, 22] of the same molecule?
Answer: 30

Question: What about the “Plant response rating, Ryegrass, Italian” value [8, 18] of the same molecule?
Answer: 60

Question: And the “Ryegrass, Italian plant response rating” value [8, 23]?
Answer: 0

Question: What about the “Plant response rating, Ryegrass, Italian” value [8, 20] of the same molecule?
Answer: 0

Question: And the “Plant response rating, Barnyardgrass” value [9, 22]?
Answer: 10

Question: What about the “Plant response rating, Barnyardgrass” value [9, 18] of the same molecule?
Answer: 30

Question: What about the “Barnyardgrass plant response rating” value [9, 23] of the same molecule?
Answer: 0

Question: And the “Plant response rating, Barnyardgrass” value [9, 20]?
Answer: 20

Question: And the “Plant response rating, Pigweed” value [10, 22]?
Answer: 100

Question: And the “Plant response rating, Pigweed” value [10, 18]?
Answer: 100

Question: What about the “Pigweed plant response rating” value [10, 23] of the same molecule?
Answer: 90

Question: And the “Plant response rating, Pigweed” value [10, 20]?
Answer: 100

Question: And the “Plant response rating, Foxtail, Giant” value [11, 22]?
Answer: 0

Question: And the “Plant response rating, Foxtail, Giant” value [11, 18]?
Answer: 50

Question: What about the “Foxtail, Giant plant response rating” value [11, 23] of the same molecule?
Answer: 10

Question: And the “Plant response rating, Foxtail, Giant” value [11, 20]?
Answer: 40

Question: And the “Plant response rating, Corn” value [12, 22]?
Answer: 0

Question: What about the “Plant response rating, Corn” value [12, 18] of the same molecule?
Answer: 20

Question: And the “Plant response rating, Blackgrass” value [13, 22]?
Answer: 10

Question: And the “Plant response rating, Blackgrass” value [13, 18]?
Answer: 70

Question: And the “Plant response rating, Galium” value [14, 22]?
Answer: 100

Question: And the “Plant response rating, Galium” value [14, 18]?
Answer: 100

Question: And the “Oat, Wild plant response rating” value ([15]; 16 g ai/ha)?
Answer: 15

Question: And the “Oat, Wild plant response rating” value ([15]; 31 g ai/ha)?
Answer: 20

Question: And the “Plant response rating, Oat, Wild” value ([15]; 62 g ai/ha)?
Answer: 20

Question: And the “Plant response rating, Oat, Wild” value ([15]; 125 g ai/ha)?
Answer: 20

Question: And the “Kochia plant response rating” value ([16]; 16 g ai/ha)?
Answer: 25

Question: What about the “Kochia plant response rating” value ([16]; 31 g ai/ha) of the same molecule?
Answer: 60

Question: And the “Plant response rating, Kochia” value ([16]; 62 g ai/ha)?
Answer: 85

Question: What about the “Plant response rating, Kochia” value ([16]; 125 g ai/ha) of the same molecule?
Answer: 100

Question: And the “Chickweed plant response rating” value ([17]; 16 g ai/ha)?
Answer: 60

Question: And the “Chickweed plant response rating” value ([17]; 31 g ai/ha)?
Answer: 85

Question: And the “Plant response rating, Chickweed” value ([17]; 62 g ai/ha)?
Answer: 90

Question: What about the “Plant response rating, Chickweed” value ([17]; 125 g ai/ha) of the same molecule?
Answer: 98
